What is called Ki is a dissociation constant, usually derived from enzyme kinetics or from competition with a known ligand.

The test system of one series is primary cortical neurons. As to conditions: for effect of GPR30 antagonist G15 on neuroprotection: G15 100 nM pre-treatment, test compounds 100 nM; for neuroprotection against OGD by BT-SERM analogs and derivatives: all 100 nM, MTT assay; for neuroprotection against OGD at lower concentrations: 1 μM or below; for effect of G15 on neuroprotection by antioxidants / sulforaphane: G15 pre-treatment (-45 min); for neuroprotection against OGD by antioxidants / sulforaphane: concentration series; for neuroprotection against OGD, initial screen of BT-SERMs: BT-SERMs 100 nM; for concentration giving equivalence to E2 (10 nM) in neuroprotection: MTT cell viability assay, 2 h OGD, 24 h reperfusion. (Tetrazolium assays rely on reduction of a dye to a coloured formazan, in cell work by metabolically active cells.)

The next series has as its target T1, ER (Homo sapiens, UniProt P03372).
T1 sequence (P03372 1-595): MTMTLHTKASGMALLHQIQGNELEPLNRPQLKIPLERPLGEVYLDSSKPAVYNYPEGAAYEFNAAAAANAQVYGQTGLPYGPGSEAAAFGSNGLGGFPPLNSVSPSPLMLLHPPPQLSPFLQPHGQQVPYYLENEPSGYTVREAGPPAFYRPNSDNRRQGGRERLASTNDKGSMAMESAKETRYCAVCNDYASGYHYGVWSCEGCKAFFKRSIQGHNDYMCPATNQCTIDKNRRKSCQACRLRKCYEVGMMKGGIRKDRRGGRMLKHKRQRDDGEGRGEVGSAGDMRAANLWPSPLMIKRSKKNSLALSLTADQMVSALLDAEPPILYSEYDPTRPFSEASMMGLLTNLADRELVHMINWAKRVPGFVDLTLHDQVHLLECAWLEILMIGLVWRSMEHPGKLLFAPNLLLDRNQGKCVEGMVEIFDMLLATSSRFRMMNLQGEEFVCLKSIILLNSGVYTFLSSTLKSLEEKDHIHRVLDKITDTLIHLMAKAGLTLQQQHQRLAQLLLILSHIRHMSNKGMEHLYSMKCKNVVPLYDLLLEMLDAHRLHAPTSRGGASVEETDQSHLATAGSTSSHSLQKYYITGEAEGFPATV
As to conditions: Fig. 1; cited from earlier work.

The subject of a further series is ERβ. As to conditions: cited from earlier work.
Another series relates to ERα. As to conditions: cited from earlier work.
Another series concerns the target iNOS. As to conditions: read-out: Ki iNOS; cited from earlier work.

“Also recorded” adds a separate entry of the source. Like-named read-outs stand apart in the source and are kept apart here.

Consider `Oc1cccc(-c2cn(-c3cccc(O)c3)nn2)c1` [3,3-TDP], for which the “effect of GPR30 antagonist G15 on neuroprotection” value (shortened to “effect of GPR30 antagonist G15”) in the series with primary cortical neurons (E2 10 nM) is “GPR30-dependent”. Further, the “neuroprotection against OGD by BT-SERM analogs and derivatives” value with primary cortical neurons is given as “neuroprotective”.

Take `Oc1ccc(-c2cn(-c3ccc(O)cc3)nn2)cc1` [4,4-TDP]: the “neuroprotection against OGD by BT-SERM analogs and derivatives” value with primary cortical neurons is listed as “no neuroprotective activity”.

Turning to `Cc1cc(C(C)(C)C)c(O)c(C(C)(C)C)c1` [BHT, butylated hydroxtoluene], in the series on primary cortical neurons (MTT and LDH), the “neuroprotection against OGD at lower concentrations” value is recorded as “neuroprotective” and the “neuroprotection against OGD by antioxidants / sulforaphane” value was “neuroprotective”. Also, in the series on primary cortical neurons, the “effect of G15 on neuroprotection by antioxidants / sulforaphane” value (from here on “effect … by antioxidants / sulforaphane”) was “insensitive to antagonism by G15”. Moreover, the “effect in OGD neurons at higher concentration” value in the series with primary cortical neurons (higher concentration (10 μM), MTT and LDH) is recorded as “neurotoxicity; also recorded: neurotoxic”.

In the case of `Oc1ccc(-c2cc3ccc(O)cc3s2)cc1` [BTC, 2-(4-hydroxyphenyl)-benzo[b]thiophen-6-ol], in the series on primary cortical neurons (MTT and LDH), the “neuroprotection against OGD, initial screen of BT-SERMs” value (shortened to “neuroprotection … of BT-SERMs”) is recorded as “active”. Moreover, the “effect … by antioxidants / sulforaphane” value in the series with primary cortical neurons is “did not inhibit neuroprotection”. For the same compound, the “ER activity in cell culture” value at ER is given as “ER agonist activity”. Also, the ER subtype selectivity entry with ERβ (ERβ versus ERα, Fig. 1) was “selectivity for ERβ”.

Turning to `Oc1ccc(-c2sc3cc(O)ccc3c2Oc2ccc(OCCN3CCCCC3)cc2)cc1` [DMA, [6-hydroxy-3-[4-[2-(1-piperidinyl)-ethoxy]phenoxy]-2-(4-hydroxyphenyl)]benzo[b]thiophene], the “binding to ERα” value in the series with ERα is “high affinity”. In addition, in the series on primary cortical neurons (MTT and LDH), the “neuroprotection … of BT-SERMs” value was “neuroprotective”. For the same compound, the “concentration giving equivalence to E2 (10 nM) in neuroprotection” value in the series on primary cortical neurons was 28 nM. Moreover, the “binding to ERβ” value in the series with ERβ was “high affinity”.

Consider `C[C@]12CC[C@@H]3c4ccc(O)cc4CC[C@H]3[C@@H]1CC[C@@H]2O` [E2, 17β-estradiol], for which the “effect of GPR30 antagonist G15” value with primary cortical neurons (E2 10 nM) is reported as “blocked neuroprotection”. The “effect of ER antagonist ICI 182 780 on neuroprotection” value in the series with primary cortical neurons (ICI 1 μM 45 min prior to OGD, SERMs 100 nM, E2 10 nM) is “block E2 mediated neuroprotection”. Also, in the series on primary cortical neurons (OGD 2 h, recovery 24 h), the “greater cell death in the vehicle treated group than the E2 treated group” value was 30-40%. Moreover, the “neuroprotection against OGD by estrogens” value in the series on primary cortical neurons (estrogens 10 nM, E2-BSA 10 ng/mL, MTT and LDH) is listed as “neuroprotective”.

With `Oc1ccc(Oc2c(-c3ccc(F)cc3)sc3cc(O)ccc23)cc1` [HP-BTF, 2-(4-fluorophenyl)-3-(4-hydroxyphenoxy)benzo[b]thiophen-6-ol], in the series with primary cortical neurons (E2 10 nM), the “effect of GPR30 antagonist G15” value is “GPR30-dependent”. Further, in the series with primary cortical neurons, the “neuroprotection against OGD by BT-SERM analogs and derivatives” value is listed as “neuroprotective”.

Consider `COC(=O)[C@@H](N)CCCNC(N)=N[N+](=O)[O-]` [L-NAME, L-nitro-arginine methyl ester], for which, in the series with primary cortical neurons (L-NAME 100 μM, alone or in combination with estrogen and SERMs), the “effect of L-NAME on neuroprotection” value was “no significant effect”.

Turning to `N=C(NCCC[C@H](N)C(=O)O)N[N+](=O)[O-]` [N^G-nitro-L-arginine], the inhibition constant (Ki) at iNOS is 4 µM.

On to `O=C(c1ccc(OCCN2CCCCC2)cc1)c1c(-c2ccc(O)cc2)sc2cc(O)ccc12` [Ral, raloxifene], for which, in the series on primary cortical neurons (MTT and LDH), the “neuroprotection … of BT-SERMs” value is on record as “neuroprotective”. For the same compound, the “concentration giving equivalence to E2 (10 nM) in neuroprotection” value turned out to be 68 nM in the series on primary cortical neurons and 62 nM in the series on primary cortical neurons (listed as raloxifene).

With `Cc1ccc(C(=O)c2c(-c3ccc(O)cc3)sc3cc(O)ccc23)cc1` [Tol-BTC, (6-hydroxy-2-(4-hydroxyphenyl)benzo[b]thiophen-3-yl)(p-tolyl)methanone], the “neuroprotection against OGD by BT-SERM analogs and derivatives” value in the series on primary cortical neurons is listed as “neuroprotective”.

For the compound `Cc1c(C)c2c(c(C)c1O)CCC(C)(C(=O)O)O2` (centres unmarked) [Trolox], the “effect … by antioxidants / sulforaphane” value with primary cortical neurons is “did not inhibit neuroprotection; also recorded: insensitive to antagonism by G15”. The “neuroprotection against OGD by antioxidants / sulforaphane” value in the series on primary cortical neurons (MTT and LDH) is on record as “neuroprotective; also recorded: concentration dependent neuroprotection”.

Turning to `COc1ccc(-c2sc3cc(O)ccc3c2Oc2ccc(OCCN3CCCCC3)cc2)cc1` [arzoxifene], in the series with primary cortical neurons (MTT and LDH), the “neuroprotection … of BT-SERMs” value was “inactive”.

Turning to `O=C(CCCCCC(=O)c1c(-c2ccc(O)cc2)sc2cc(O)ccc12)c1c(-c2ccc(O)cc2)sc2cc(O)ccc12` [bisBTChd, 1,7-bis(6-hydroxy-2-(4-hydroxyphenyl)benzo[b]thiophen-3-yl)heptane-1,7-dione], the “neuroprotection against OGD by BT-SERM analogs and derivatives” value in the series with primary cortical neurons was “neuroprotective”.

As for `CC(C)c1c(-c2ccc(O)cc2)sc2cc(O)ccc12` [iPr-BTC, 2-(4-hydroxyphenyl)-3-isopropylbenzo[b]thiophen-6-ol], the “neuroprotection against OGD by BT-SERM analogs and derivatives” value with primary cortical neurons was “neuroprotective”.

As to `C[S+]([O-])CCCCN=C=S` (centres unmarked) [sulforaphane], the “neuroprotection against OGD at lower concentrations” value was “neuroprotection” with primary cortical neurons (MTT and LDH); “neuroprotective” with primary cortical neurons (MTT and LDH, listed as Sulforaphane). For the same compound, the “effect … by antioxidants / sulforaphane” value in the series on primary cortical neurons is “did not inhibit neuroprotection; also recorded: insensitive to antagonism by G15”.

(Values after PMC3124785 (ACS chemical neuroscience, 2011).)
